Literature values in patent US11248001B2, “PCSK9 inhibitors and methods of use thereof” (ASTRAZENECA AB, priority 2019, dated 2022).

Details: clinical trials, patients

Molecule | decrease in LDL levels
alirocumab | about 50%
evolocumab (antibody, chains of the INN, looked up, V domains shown) VH: EVQLVQSGAEVKKPGASVKVSCKASGYTLTSYGISWVRQAPGQGLEWMGWVSFYNGNTNYAQKLQGRGTMTTDPSTSTAYMELRSLRSDDTAVYYCARGYGMDVWGQGTTVTVSS VL: ESALTQPASVSGSPGQSITISCTGTSSDVGGYNSVSWYQQHPGKAPKLMIYEVSNRPSGVSNRFSGSKSGNTASLTISGLQAEDEADYYCNSYTSTSMVFGGGTKLTVL | 60-75%
